# Experimental data reported in US20070087974A1, “TREATMENT OR PREVENTION OF RESPIRATORY VIRAL INFECTIONS WITH IMMUNOMODULATOR COMPOUNDS” (SCICLONE PHARMACEUTICALS, INC., priority 2004, published 2007).
# Read-outs that look alike come from different tables or passages of the source. Marks after values point to notes of the source that are not given here.
# Tested on: Influenza virus A—A/Achi/1/68 (H3N2)
# Type: in vivo, outbred CFW female mice
# [1] = 10.0 mg/kg per os for 5 days, […]
smiles,measurement,setting,value
"N[C@H](CCC(=O)N[C@@H](Cc1c[nH]c2ccccc12)C(=O)O)C(=O)O [SCV-07, γ-D-glutamyl-L-tryptophan]",# of mice survived,"0.1 mg/kg per os for 5 days, […]",0
same,# of mice survived,"1.0 mg/kg per os for 5 days, […]",0
same,Median survival (days),"1.0 mg/kg per os for 5 days, […], p = 0.025 compared to PBS-treated group by Log Rank test",9.0* days
same,# of mice survived,[1],0
same,Median survival,[1],6.0 days
same,Median survival,"mouse, in vivo",7.0 days
